Like-named read-outs stand apart in the source and are kept apart here.
Experiments:
[1] = target: T1, cytoplasmic domain of the human CSF-1R (Homo sapiens, UniProt P07333); experiment: In vitro kinase assay for colony stimulating factor-1 receptor (AlphaScreen); type: biochemical; details: read-out: CSF-1R percent inhibition
T1 construct: Recombinant protein corresponding to the cytoplasmic domain of the human CSF-1R; purchased Invitrogen Corporation, Carlsbad, Calif; PV3249
T1 sequence (P07333 539-972 limits assumed): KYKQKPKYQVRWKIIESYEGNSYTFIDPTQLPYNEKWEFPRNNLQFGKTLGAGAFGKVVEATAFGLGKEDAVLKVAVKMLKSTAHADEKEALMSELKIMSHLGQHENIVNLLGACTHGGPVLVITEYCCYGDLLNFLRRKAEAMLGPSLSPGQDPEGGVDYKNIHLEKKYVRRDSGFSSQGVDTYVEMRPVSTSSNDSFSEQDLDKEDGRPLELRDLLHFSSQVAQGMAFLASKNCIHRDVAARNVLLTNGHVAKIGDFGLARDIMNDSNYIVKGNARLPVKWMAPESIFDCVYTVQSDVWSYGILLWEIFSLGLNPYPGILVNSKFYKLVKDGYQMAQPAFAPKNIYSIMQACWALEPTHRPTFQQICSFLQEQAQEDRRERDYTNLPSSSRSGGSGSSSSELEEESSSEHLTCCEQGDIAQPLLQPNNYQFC
Outline: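 Kinase reaction used 4 nM recombinant cytoplasmic domain at 1 μM ATP in 50 mM Hepes pH 7.5 with 5 mM MgCl2, 10 mM MnCl2, 0.1% BSA, 1.0 mM DTT and 0.01% Tween 80. Compounds were serially diluted 3-fold from 25 μM. Phosphopeptide was detected by AlphaScreen, PT66 anti-phosphotyrosine acceptor plus streptavidin donor beads, read after overnight incubation.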

kinase domain of cKIT = target: T2, kinase domain of cKIT (Homo sapiens, UniProt P10721); experiment: Inhibition of cKIT kinase signaling in an in vitro biochemical assay (alphascreen); details: tested at about 1 μM, read-out: cKit percent inhibition
T2 construct: The kinase domain of cKIT was assayed in 50 mM Hepes; purchased Upstate 14-559
T2 sequence (P10721 589-937 limits assumed): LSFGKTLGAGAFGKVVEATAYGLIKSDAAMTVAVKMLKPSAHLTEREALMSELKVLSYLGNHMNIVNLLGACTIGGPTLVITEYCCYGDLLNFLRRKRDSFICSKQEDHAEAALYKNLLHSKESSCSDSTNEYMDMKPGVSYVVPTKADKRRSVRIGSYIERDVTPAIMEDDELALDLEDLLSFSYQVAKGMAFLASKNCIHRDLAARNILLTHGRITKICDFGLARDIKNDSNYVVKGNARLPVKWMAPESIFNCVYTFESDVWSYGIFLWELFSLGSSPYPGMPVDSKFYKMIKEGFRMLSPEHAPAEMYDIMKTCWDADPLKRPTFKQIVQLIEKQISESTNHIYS

[2] = test system: MNFS60 (murine AML cells); experiment: Cell viability assay in MCSF dependent MNFS60 cells (Cell Titer Glo); type: cell-based; details: Mus musculus, read-out: M-NFS-60 CP percent inhibition
Outline: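 3-fold DMSO dilution series (500× stocks); MCSF 10 ng/ml final; 72 hrs, 37° C., 5% CO2; CellTiter-Glo read-out; n=3; EC50 fitted.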

[3] = target: T3, full-length human CSF-1R receptor (Homo sapiens, UniProt P07333); experiment: In vitro inhibition of CSF-1R receptor tyrosine phosphorylation in transfected HEK293H cells stimulated with MCSF; type: cell-based; details: HEK293-H, read-out: pCSF1R percent inhibition
T3 construct: transfected with the full-length human CSF-1R receptor cloned in house; expressed in transfected cells; host or cells: HEK293H (Invitrogen Cat. #11631017)
T3 sequence (P07333 20-972): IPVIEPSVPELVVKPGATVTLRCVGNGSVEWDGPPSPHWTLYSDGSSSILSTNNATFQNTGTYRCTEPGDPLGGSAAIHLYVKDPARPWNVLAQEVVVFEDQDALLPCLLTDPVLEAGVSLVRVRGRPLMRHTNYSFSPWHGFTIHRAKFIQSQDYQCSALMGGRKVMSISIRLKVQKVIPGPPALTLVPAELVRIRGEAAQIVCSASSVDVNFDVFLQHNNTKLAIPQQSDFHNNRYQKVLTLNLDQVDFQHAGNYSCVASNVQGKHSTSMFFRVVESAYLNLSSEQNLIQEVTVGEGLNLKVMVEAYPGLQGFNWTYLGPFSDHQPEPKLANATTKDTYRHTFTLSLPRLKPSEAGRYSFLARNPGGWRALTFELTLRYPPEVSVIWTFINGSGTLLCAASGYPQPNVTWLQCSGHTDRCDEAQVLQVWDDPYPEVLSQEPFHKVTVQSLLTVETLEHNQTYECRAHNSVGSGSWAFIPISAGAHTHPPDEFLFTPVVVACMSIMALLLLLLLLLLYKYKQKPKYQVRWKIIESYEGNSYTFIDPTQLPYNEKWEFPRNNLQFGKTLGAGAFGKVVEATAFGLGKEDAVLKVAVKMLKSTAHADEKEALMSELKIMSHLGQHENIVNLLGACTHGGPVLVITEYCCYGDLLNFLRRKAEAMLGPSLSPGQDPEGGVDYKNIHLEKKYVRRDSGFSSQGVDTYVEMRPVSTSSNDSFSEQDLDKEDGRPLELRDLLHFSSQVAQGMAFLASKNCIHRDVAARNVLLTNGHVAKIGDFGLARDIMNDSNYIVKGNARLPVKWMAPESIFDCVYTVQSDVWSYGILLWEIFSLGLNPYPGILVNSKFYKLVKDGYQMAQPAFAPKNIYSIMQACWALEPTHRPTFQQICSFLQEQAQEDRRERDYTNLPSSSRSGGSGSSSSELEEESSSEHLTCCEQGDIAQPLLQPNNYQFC
Description: The lysate was then transferred to total CSF-1R antibody coated 96-well plates that had already been blocked with 3% Blocker A from Mesoscale discovery (MSD) for 2 hours and washed afterwards. Lysates were incubated overnight at 4° C. and the plates were then washed 4× with MSD Tris Wash Buffer. […] The plates were read on the Sector 6000 instrument (MSD). Raw data was imported in Abase and EC50s calculated with XL-fit data analysis software.

kinase domain of PDGFRβ = target: T4, kinase domain of PDGFRβ (Homo sapiens, UniProt P09619); experiment: Inhibition of PDGFRb kinase signaling in an in vitro biochemical assay (alphascreen); details: tested at about 1 μM, read-out: PDGFRβ percent inhibition
T4 construct: The kinase domain of PDGFRβ was assayed in 50 mM Hepes; purchased Invitrogen P3082
T4 sequence (P09619 600-962 limits assumed): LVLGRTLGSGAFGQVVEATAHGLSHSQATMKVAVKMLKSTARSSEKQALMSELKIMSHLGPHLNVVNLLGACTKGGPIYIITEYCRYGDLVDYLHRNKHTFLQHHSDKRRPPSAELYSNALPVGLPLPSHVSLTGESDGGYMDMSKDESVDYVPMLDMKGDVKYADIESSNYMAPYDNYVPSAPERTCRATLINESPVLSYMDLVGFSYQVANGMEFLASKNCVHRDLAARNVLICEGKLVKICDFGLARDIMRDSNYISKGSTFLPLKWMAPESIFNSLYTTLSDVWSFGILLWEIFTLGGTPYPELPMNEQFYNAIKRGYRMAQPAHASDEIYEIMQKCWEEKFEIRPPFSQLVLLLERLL

[4] = tested at about 1 μM, compounds of Table 3
[5] = tested at about 1 μM, MCSF dependent MNFS60 cells
[6] = tested at about 1 μM, HEK293H cells
[7] = tested at about 1 μM, MNFS60 cells

SMILES	inhibition at 1 µM [1, 4]	inhibition at 1 µM (kinase domain of cKIT; compounds of Table 3)	inhibition at 1 µM [3, 4]	inhibition at 1 µM (kinase domain of PDGFRβ; compounds of Table 3)	inhibition at 1 µM ([1]; tested at about 1 μM)	inhibition at 1 µM (kinase domain of cKIT)	inhibition at 1 µM [3, 6]	inhibition at 1 µM (kinase domain of PDGFRβ)	inhibition at 1 µM [2, 4]	inhibition at 1 µM [2, 5]	inhibition at 1 µM [1]	inhibition at 1 µM [2]	inhibition at 1 µM [3]	inhibition at 1 µM [2, 7]
C[C@H](Nc1nc2ccc(Oc3ccnc(-c4ccncc4)c3)cc2s1)C1CCCCC1 [Example 275, (S)-6-(2,4'-bipyridin-4-yloxy)-N-(1-cyclohexylethyl)benzo[d] thiazol-2-amine]	100%	45%	94%	16%	–	–	–	–	89%	–	–	–	–	–
CNC(=O)c1cc(Oc2ccc3nc(NCc4c(F)cccc4OC)sc3c2)ccn1 [Example 223, 4-(2-(2-fluoro-6-methoxybenzylamino)benzo[d]thiazol-6-yloxy)-N-methylpicolinamide]	100%	54%	97%	28%	–	–	–	–	100%	–	–	–	–	–
N#Cc1ccc2nccc(Oc3ccc4nc(N[C@@H]5CCCC[C@H]5O)sc4c3)c2c1 [Example 220, 4-(2-((1R,2R)-2-hydroxycyclohexylamino)benzo[d]thiazol-6-yloxy)quinolin-6-carbonitrile]	100%	48%	91%	65%	–	–	–	–	84%	–	–	–	–	–
CNC(=O)c1cc(Oc2ccc3nc(NC[C@@H](O)c4ccccc4)sc3c2)ccn1 [Compound 145]	100%	39%	86%	33%	–	–	–	–	58%	–	–	–	–	–
Cn1cc(-c2cc(Oc3ccc4nc(N[C@@H]5CCCC[C@H]5O)sc4c3)ccn2)cn1 [Example 344, (1R,2R)-2-(6-(2-(1-methyl-1H-pyrazol-4-yl)pyridin-4-yloxy)benzo[d]thiazol-2-ylamino)cyclohexanol]	–	–	–	–	–	45%	–	65%	–	–	100%	100%	95%	–
CNC(=O)c1cc(Oc2ccc3nc(NCc4cccc(Cl)c4Cl)sc3c2)ccn1 [Compound 134, 4-[2-(2,3-Dichloro-benzylamino)-benzothiazol-6-yloxy]-pyridine-2-carboxylic acid methylamide]	–	–	–	–	98%	98%	93%	0%	–	–	–	–	–	93%

More lines, main results first:

inhibition at 1 µM [1, 4]	inhibition at 1 µM (kinase domain of cKIT; compounds of Table 3)	inhibition at 1 µM [3, 4]	inhibition at 1 µM (kinase domain of PDGFRβ; compounds of Table 3)	inhibition at 1 µM ([1]; tested at about 1 μM)	inhibition at 1 µM (kinase domain of cKIT)	inhibition at 1 µM [3, 6]	inhibition at 1 µM (kinase domain of PDGFRβ)	SMILES	inhibition at 1 µM [2, 4]	inhibition at 1 µM [2, 5]	inhibition at 1 µM [1]	inhibition at 1 µM [2]	inhibition at 1 µM [3]	inhibition at 1 µM [2, 7]
–	–	–	–	100%	29%	79%	9%	O[C@@H]1CCCC[C@H]1Nc1nc2ccc(Oc3ccnc(-c4ccco4)c3)cc2s1 [Example 371, (1R,2R)-2-(6-(2-(furan-2-yl)pyridin-4-yloxy)benzo[d]thiazol-2-ylamino)cyclohexanol]	–	69%	–	–	–	–
–	–	–	–	100%	27%	16%	41%	CNC(=O)c1cc(Oc2ccc3nc(N[C@H]4CCCC[C@@H]4OCc4ccccc4)sc3c2)ccn1 [Compound 156, 4-[2-((1S,2S)-2-Benzyloxy-cyclohexylamino)-benzothiazol-6-yloxy]-pyridine-2-carboxylic acid methylamide]	–	–	–	–	–	63%
–	–	–	–	99%	41%	50%	8%	CNC(=O)c1cc(Oc2ccc3nc(N[C@H]4CCCC[C@@H]4NS(C)(=O)=O)sc3c2)ccn1 [Example 330, N-mehtyl-4-(2-((1S,2S)-2-(methylsulfonamido)cyclo-hexylamino)benzo[d]thiazol-6-yloxy)picolinamide]	–	58%	–	–	–	–
–	–	–	–	100%	59%	92%	17%	CNC(=O)c1cc(Oc2ccc3nc(N[C@@H]4CCc5ccccc5C4)sc3c2)ccn1 [Example 329, (R)-N-methyl-4-(2-(1,2,3,4-tetrahydronaphthalen-2-ylamino)benzo[d]thiazol-6-yloxy)picolinamide]	–	84%	–	–	–	–
–	–	–	–	100%	21%	88%	8%	O[C@@H]1CCCC[C@H]1Nc1nc2ccc(Oc3ccnc(-c4ncco4)c3)cc2s1 [Example 372, (1R,2R)-2-(6-(2-(oxazol-2-yl)pyridin-4-yloxy)benzo[d]thiazol-2-ylamino)cyclohexanol]	–	75%	–	–	–	–
–	–	–	–	100%	19%	93%	13%	O[C@@H]1CCCC[C@H]1Nc1nc2ccc(Oc3ccnc(-c4cccnc4)c3)cc2s1 [Example 345, (1R,2R)-2-(6-(2,3'-bipyridin-4-yloxy)benzo[d]thiazol-2-ylamino)cyclohexanol]	–	97%	–	–	–	–
100%	18%	81%	8%	–	–	–	–	O[C@@H]1CCCC[C@H]1Nc1nc2ccc(Oc3ccnc(-c4ccc(F)nc4)c3)cc2s1 [Cmpd 173, (1R,2R)-2-(6-(6'-fluoro-2,3'-bipyridin-4-yloxy)benzo[d]thiazol-2-ylamino)cyclohexanol]	52%	–	–	–	–	–
100%	29%	96%	23%	–	–	–	–	O[C@@H]1CCCC[C@H]1Nc1nc2ccc(Oc3ccnc(-c4cscn4)c3)cc2s1 [Compound 159]	98%	–	–	–	–	–

— patent publication US8173689B2 (Novartis AG, priority 2006, dated 2012)
